Measurements from patent US20260250318A1, “COMPOSITIONS AND METHODS FOR CROSSING THE BLOOD BRAIN BARRIER” (VOYAGER THERAPEUTICS, INC., priority 2022, published 2026).

Experiments:
[1] = test system: brains, heart, liver, muscle, and DRG of the NHPs; experiment: Maturation of TTM-001 and TTM-002 capsids, NGS enrichment in NHP tissues; assay type: in vivo; conditions: relative to AAV9 control
Procedure, shortened: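 Variants carry mutations within and flanking the loop IV peptide insert: positions 450–466 were triplet-randomized, while positions 449–466 received low-frequency point mutations. The combined pool went into two NHPs, and each peptide was scored by NGS enrichment ratio against AAV9.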

brain = experiment: Matured TTM-001 and TTM-002 variants, NGS enrichment in mouse brain; assay type: in vivo, mice; conditions: relative to AAV9 control
[2] = NGS fold-enrichment of RNA, NHP brain
[3] = NGS fold-enrichment, NHP liver DNA
[4] = NGS fold-enrichment, NHP liver RNA
[5] = NGS fold-enrichment, NHP muscle
[6] = NGS fold-enrichment, mouse brain
[7] = NGS fold-enrichment, DRG of NHPs
[8] = NGS fold-enrichment, RNA, brain of NHPs
[9] = NGS fold-enrichment, heart of NHPs
[10] = NGS fold-enrichment, liver DNA of NHPs
[11] = NGS fold-enrichment, liver RNA of NHPs
[12] = NGS fold-enrichment, muscle of NHPs
[13] = NGS fold-enrichment, brain of mice
[14] = NGS fold-enrichment of matured AAV capsid variants, NHP brain, RNA

Sequence	Fold Enrichment relative to AAV9, Brain (NHP) [1, 2] [fold]	Fold Enrichment relative to AAV9, DRG (NHP) ([1]; NGS fold-enrichment, NHP DRG) [fold]	Fold Enrichment relative to AAV9, Heart (NHP) ([1]; NGS fold-enrichment, NHP heart) [fold]	Fold Enrichment relative to AAV9, Liver DNA (NHP) [1, 3] [fold]	Fold Enrichment relative to AAV9, Liver RNA (NHP) [1, 4] [fold]	Fold Enrichment relative to AAV9, Muscle (NHP) [1, 5] [fold]	Fold Enrichment relative to AAV9, Brain (Mouse) (brain; [6]) [fold]	further results
KAIIGHESPHKSGQNQQT	88.563	0.000	0.150	0.145	0.062	0.000	8.530	–
KAIKGSGSPHSKAQDQQT	82.258	0.000	0.000	0.000	0.108	0.000	85.178	Fold Enrichment relative to AAV9, DRG (NHP) [1, 7]: 0.000 fold; Fold Enrichment relative to AAV9, Brain (NHP) [1, 8]: 82.258 fold; Fold Enrichment relative to AAV9, Heart (NHP) [1, 9]: 0.000 fold; Fold Enrichment relative to AAV9, Liver DNA (NHP) [1, 10]: 0.000 fold; Fold Enrichment relative to AAV9, Liver RNA (NHP) [1, 11]: 0.108 fold; Fold Enrichment relative to AAV9, Muscle (NHP) [1, 12]: 0.000 fold; Fold Enrichment relative to AAV9, Brain (Mouse) (brain; [13]): 85.178 fold
KAINGHDNPHKSGQNQQT	88.906	0.297	0.721	0.130	0.222	0.482	9.702	–
KAINGHDSPHKSAQNQET	90.402	0.000	0.073	0.000	0.746	0.000	10.674	–
KAINGHDSPHKSAQSQQT	95.204	0.146	0.310	0.058	0.699	0.000	14.595	–
KAINGHDSPHKSEKNQQT	77.103	0.000	0.274	0.000	0.000	0.000	26.868	–
KAINGHDSPHKSGPRQQT	145.142	0.000	0.408	0.000	0.000	0.000	8.259	–
KAINGHDSPHKSGQIRQT	108.510	0.000	23.908	0.261	0.132	0.000	8.862	–
KAINGHDSPHKSGQSPQT	75.734	0.095	0.148	0.238	0.000	0.000	14.195	–
KAINGPDSPHKSGQKQQT	78.213	0.464	0.047	0.162	0.323	0.000	10.395	–
KAINGSGSPHSKAHNQET	–	–	–	–	–	–	–	Fold Enrichment relative to AAV9, Brain (NHP) [1, 14]: 52.973 fold; Fold Enrichment relative to AAV9, DRG (NHP) ([1]; NHP DRG): 0.000 fold; Fold Enrichment relative to AAV9, Heart (NHP) ([1]; NHP heart): 0.030 fold; Fold Enrichment relative to AAV9, Liver DNA (NHP) ([1]; NHP liver, DNA): 0.058 fold; Fold Enrichment relative to AAV9, Liver RNA (NHP) ([1]; NHP liver, RNA): 0.035 fold; Fold Enrichment relative to AAV9, Muscle (NHP) ([1]; NHP muscle): 0.000 fold; Fold Enrichment relative to AAV9, Brain (Mouse) (brain; mouse brain): 71.809 fold
KAINGSGSPHSKAQDKQT	–	–	–	–	–	–	–	Fold Enrichment relative to AAV9, Brain (NHP) [1, 14]: 54.452 fold; Fold Enrichment relative to AAV9, DRG (NHP) ([1]; NHP DRG): 0.000 fold; Fold Enrichment relative to AAV9, Heart (NHP) ([1]; NHP heart): 0.000 fold; Fold Enrichment relative to AAV9, Liver DNA (NHP) ([1]; NHP liver, DNA): 0.223 fold; Fold Enrichment relative to AAV9, Liver RNA (NHP) ([1]; NHP liver, RNA): 0.044 fold; Fold Enrichment relative to AAV9, Muscle (NHP) ([1]; NHP muscle): 0.057 fold; Fold Enrichment relative to AAV9, Brain (Mouse) (brain; mouse brain): 56.004 fold
KAINGSGSPHSKAQDQET	84.080	0.000	0.000	0.027	0.194	0.000	87.637	Fold Enrichment relative to AAV9, DRG (NHP) [1, 7]: 0.000 fold; Fold Enrichment relative to AAV9, Brain (NHP) [1, 8]: 84.080 fold; Fold Enrichment relative to AAV9, Heart (NHP) [1, 9]: 0.000 fold; Fold Enrichment relative to AAV9, Liver DNA (NHP) [1, 10]: 0.027 fold; Fold Enrichment relative to AAV9, Liver RNA (NHP) [1, 11]: 0.194 fold; Fold Enrichment relative to AAV9, Muscle (NHP) [1, 12]: 0.000 fold; Fold Enrichment relative to AAV9, Brain (Mouse) (brain; [13]): 87.637 fold
KAINGSGSPHSKAQNAQT	–	–	–	–	–	–	–	Fold Enrichment relative to AAV9, DRG (NHP) [1, 7]: 0.000 fold; Fold Enrichment relative to AAV9, Brain (NHP) [1, 8]: 69.651 fold; Fold Enrichment relative to AAV9, Heart (NHP) [1, 9]: 0.000 fold; Fold Enrichment relative to AAV9, Liver DNA (NHP) [1, 10]: 0.142 fold; Fold Enrichment relative to AAV9, Liver RNA (NHP) [1, 11]: 0.023 fold; Fold Enrichment relative to AAV9, Muscle (NHP) [1, 12]: 0.000 fold; Fold Enrichment relative to AAV9, Brain (Mouse) (brain; [13]): 72.160 fold
KAINGSGSPHSKAQNLAT	101.954	0.000	10.954	0.239	0.298	8.655	116.685	Fold Enrichment relative to AAV9, DRG (NHP) [1, 7]: 0.000 fold; Fold Enrichment relative to AAV9, Brain (NHP) [1, 8]: 101.954 fold; Fold Enrichment relative to AAV9, Heart (NHP) [1, 9]: 10.954 fold; Fold Enrichment relative to AAV9, Liver DNA (NHP) [1, 10]: 0.239 fold; Fold Enrichment relative to AAV9, Liver RNA (NHP) [1, 11]: 0.298 fold; Fold Enrichment relative to AAV9, Muscle (NHP) [1, 12]: 8.655 fold; Fold Enrichment relative to AAV9, Brain (Mouse) (brain; [13]): 116.685 fold
KAINGSGSPHSKAQSQQI	–	–	–	–	–	–	–	Fold Enrichment relative to AAV9, Brain (NHP) [1, 14]: 56.976 fold; Fold Enrichment relative to AAV9, DRG (NHP) ([1]; NHP DRG): 0.000 fold; Fold Enrichment relative to AAV9, Heart (NHP) ([1]; NHP heart): 0.000 fold; Fold Enrichment relative to AAV9, Liver DNA (NHP) ([1]; NHP liver, DNA): 0.000 fold; Fold Enrichment relative to AAV9, Liver RNA (NHP) ([1]; NHP liver, RNA): 0.000 fold; Fold Enrichment relative to AAV9, Muscle (NHP) ([1]; NHP muscle): 0.000 fold; Fold Enrichment relative to AAV9, Brain (Mouse) (brain; mouse brain): 57.052 fold
